Source: US20230203041A1, “ANTAGONISTS OF THE ADENOSINE A2A RECEPTOR” (AdoRx Therapeutics Limited, priority 2020, published 2023)
Counter-ions that a name gives are not always drawn.

Columns and labels:
[1] = target: T1, human Adenosine A2a receptor (Homo sapiens, UniProt P29274); assay: Adenosine receptor TR-FRET binding assay (CA200645 displacement), A2a; conditions: 100 nM CA200645, CHO cell membranes, 2 hours at room temperature
T1 construct: expressed in transfected cells; host or cells: CHO cell membranes
Protocol: (§1) All FRET binding experiments were conducted at room temperature in white 384-well plates, in assay binding buffer containing 1×LabMed (Cisbio, France), 100 μg/mL saponin, 1% DMSO and 0.02% pluronic acid. Binding of the fluorescently labelled Adenosine receptor antagonist XAC (CA200645, FRET acceptor) to terbium-labelled A1, A2a, A2b and A3 adenosine receptors (FRET donors) was detected by time-resolved FRET due to the close proximity of the donor and acceptor in a binding event. To investigate the ability of unlabelled test compounds to bind to Adenosine A1, A2a, A2b and A3 receptors, dose response curves were constructed that determined the ability of a range of concentrations to inhibit the binding of 30 nM CA200645 to the A2b receptor and 100 nM CA200645 to the A1, A2a, and A3 receptor.
(§2) Serial dilution (1:3 dilutions) of test compounds in neat DMSO and transfer of a 400 nL sample of test compound into the assay plate was carried out using the Mosquito (TTP Labtech, UK). The compound samples were incubated for 2 hours at room temperature with a fixed concentration of CA200645 defined for each receptor (see above) and CHO cell membranes containing the human Adenosine A1 (0.5 μg/well), A2a (0.3 μg/well), A2b (1 μg/well) or A3 (1 μg/well) receptor in 40 μL of assay buffer. Total and non-specific binding of CA200645 was determined in the absence and presence of 10 μM XAC, respectively. Following 2 hours incubation, the level of CA200645 binding was detected on a Pherastar FSX (BMG Labtech, Germany) using standard TR-FRET settings. The terbium donor was excited with three laser flashes at a wavelength of 337 nm, and donor and acceptor emission was detected at 620 nm and 665 nm wavelengths, respectively. FRET ratios were obtained by multiplying the acceptor/donor ratio value by 10,000. Specific binding was determined by subtracting the non-specific binding FRET ratio from the total binding FRET ratio. Compound IC50 curves were analysed using GraphPad Prism 7.0 (GraphPad, USA) and Ki affinity values were determined from the obtained IC50 values using the method of Cheng and Prusoff.

[2] = target: T2, human Adenosine A2b receptor (Homo sapiens, UniProt P29275); assay: Adenosine receptor TR-FRET binding assay (CA200645 displacement), A2b; conditions: 30 nM CA200645, CHO cell membranes, 2 hours at room temperature
T2 construct: expressed in transfected cells; host or cells: CHO cell membranes
T2 sequence (P29275 1-332): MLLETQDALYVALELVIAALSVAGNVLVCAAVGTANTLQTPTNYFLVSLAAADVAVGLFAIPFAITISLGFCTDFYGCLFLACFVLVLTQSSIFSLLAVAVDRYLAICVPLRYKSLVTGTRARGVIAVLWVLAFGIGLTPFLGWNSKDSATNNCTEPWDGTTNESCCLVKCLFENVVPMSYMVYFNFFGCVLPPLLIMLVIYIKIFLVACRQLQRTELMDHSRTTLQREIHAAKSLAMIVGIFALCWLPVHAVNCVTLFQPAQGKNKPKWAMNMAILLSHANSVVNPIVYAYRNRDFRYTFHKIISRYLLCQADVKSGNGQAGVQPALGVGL

[3] = target: T3, human Adenosine A1 receptor (Homo sapiens, UniProt P30542); assay: Adenosine receptor TR-FRET binding assay (CA200645 displacement), A1
T3 sequence (P30542 1-326): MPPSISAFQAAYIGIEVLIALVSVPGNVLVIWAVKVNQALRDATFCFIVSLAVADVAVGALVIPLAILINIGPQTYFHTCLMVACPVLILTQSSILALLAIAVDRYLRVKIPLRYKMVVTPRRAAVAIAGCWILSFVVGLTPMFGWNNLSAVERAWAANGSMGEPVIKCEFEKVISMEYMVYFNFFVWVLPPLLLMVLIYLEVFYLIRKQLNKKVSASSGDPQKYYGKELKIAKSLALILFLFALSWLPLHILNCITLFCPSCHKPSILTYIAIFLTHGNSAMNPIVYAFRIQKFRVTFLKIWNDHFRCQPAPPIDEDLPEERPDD

[4] = target: T4, human Adenosine A3 receptor (Homo sapiens, UniProt P0DMS8); assay: Adenosine receptor TR-FRET binding assay (CA200645 displacement), A3
T4 sequence (P0DMS8 1-318): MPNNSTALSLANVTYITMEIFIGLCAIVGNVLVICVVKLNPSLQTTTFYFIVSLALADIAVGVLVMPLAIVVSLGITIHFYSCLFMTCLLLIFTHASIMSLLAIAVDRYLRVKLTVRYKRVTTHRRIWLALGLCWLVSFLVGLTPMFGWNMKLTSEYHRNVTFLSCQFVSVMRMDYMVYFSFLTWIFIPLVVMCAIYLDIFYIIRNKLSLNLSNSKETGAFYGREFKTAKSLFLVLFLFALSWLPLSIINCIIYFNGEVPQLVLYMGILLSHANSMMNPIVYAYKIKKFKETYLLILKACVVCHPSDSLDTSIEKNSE
Protocol: as §1, §2

T1 sequence (P29274 whole entry): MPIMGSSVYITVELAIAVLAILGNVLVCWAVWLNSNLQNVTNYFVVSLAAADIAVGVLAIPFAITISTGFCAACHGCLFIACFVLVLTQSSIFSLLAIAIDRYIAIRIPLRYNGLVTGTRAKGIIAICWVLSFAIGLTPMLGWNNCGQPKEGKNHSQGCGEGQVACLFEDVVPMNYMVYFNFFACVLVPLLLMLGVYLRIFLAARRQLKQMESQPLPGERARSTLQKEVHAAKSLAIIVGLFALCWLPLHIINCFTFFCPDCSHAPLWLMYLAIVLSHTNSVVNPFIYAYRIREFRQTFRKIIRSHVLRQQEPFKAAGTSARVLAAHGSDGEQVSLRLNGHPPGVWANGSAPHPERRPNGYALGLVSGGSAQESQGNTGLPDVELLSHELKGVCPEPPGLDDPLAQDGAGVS

| Structure (SMILES) | Ki [1] [nM] | Ki [2] [nM] | Ki [3] [nM] | Ki [4] [nM] |
| --- | --- | --- | --- | --- |
| Cc1cccnc1CNc1ccn2nc(-c3ccco3)c(C(N)=O)c2n1 [Example 38, 2-(2-Furyl)-5-[(3-methyl-2-pyridyl)methylamino]pyrazolo[1,5-a]pyrimidine-3-carboxamide] | 10.5 | 971 | 158 | 1010 |
| Cc1cc(-c2c(-c3cccc(C#N)c3)nn3ccc(N)nc23)cc2ncnn12 [Example 27.5, 3-[5-Amino-3-(5-methyl-[1,2,4]triazolo[1,5-a]pyridin-7-yl)pyrazolo[1,5-a]pyrimidin-2-yl]benzonitrile] | 360 | 108 | 46 | > 1000 |
| Cc1cc(-c2c(-c3cccc(C#N)c3)nn3ccc(N[C@@H]4CCNC4)nc23)cc(Cl)n1 [Example 4.3] | 1.2 | 3 | 8 | > 1000 |
| Cc1cc(-c2c(-c3cccc(C#N)c3)nn3ccc(C(=O)NC4(C(N)=O)CCNCC4)nc23)cc(Cl)n1 (single isomer, unassigned) [Example 7.17, N-(4-Carbamoyl-4-piperidyl)-3-(2-chloro-6-methyl-4-pyridyl)-2-(3-cyanophenyl)pyrazolo[1,5-a]pyrimidine-5-carboxamide] | 16.4 | 68 | 279 | > 1000 |
| Cc1cc(-c2c(-c3cccc(C#N)c3)nn3ccc(NCC4CNC(=O)C4)nc23)cc(Cl)n1 (stereo not shown) [Example 2.14] | 1.5 | 8 | 29 | > 1000 |
| Cc1cc(-c2c(-c3cccc(C#N)c3)nn3ccc(NC(=O)N4CC5(COC5)C4)nc23)cc(C)n1 [Example 30.4, N-[2-(3-Cyanophenyl)-3-(2,6-dimethyl-4-pyridyl)pyrazolo[1,5-a]pyrimidin-5-yl]-2-oxa-6-azaspiro[3.3]heptane-6-carboxamide] | 7.8 | 73 | 103 | > 1000 |
| Cc1cc(-c2c(-c3cccc(C#N)c3)nn3ccc(N4CCC4C(=O)O)nc23)cc(Cl)n1 (stereo not shown) [Example 2.34] | 22.5 | 163 | 234 | > 1000 |
| Cc1cc(-c2c(-c3cccc(C#N)c3)nn3ccc(C(=O)N[C@H]4COC[C@H]4O)nc23)cc(Cl)n1 [Example 6.17, 3-(2-Chloro-6-methyl-4-pyridyl)-2-(3-cyanophenyl)-N-[(3S,4S)-4-hydroxytetrahydrofuran-3-yl]pyrazolo[1,5-a]pyrimidine-5-carboxamide] | 0.5 | 3 | 110 | > 1000 |
| C=C(C)[C@H](C)NC(=O)c1ccn2nc(-c3cccc(C#N)c3)c(-c3cc(C)nc(C)c3)c2n1 [Example 99, 2-(3-Cyanophenyl)-N-[(1S)-1,2-dimethylallyl]-3-(2,6-dimethyl-4-pyridyl)pyrazolo[1,5-a]pyrimidine-5-carboxamide] | 0.4 | 35 | 99 | > 1000 |
| Cc1cc(-c2c(-c3cccc(C#N)c3)nn3ccc(NC[C@@H]4COCCN4)nc23)cc(Cl)n1 [Example 4.1] | 38.5 | 163 | 522 | > 1000 |
| Cc1cc(-c2c(-c3cccc(C#N)c3)nn3ccc(C(=O)NCC(C)(C)N)nc23)cc(Cl)n1 [Example 6.1, N-(2-Amino-2-methyl-propyl)-3-(2-chloro-6-methyl-4-pyridyl)-2-(3-cyanophenyl)pyrazolo[1,5-a]pyrimidine-5-carboxamide] | 11.7 | 53 | 664 | > 1000 |
| Cc1cc(-c2c(-c3cccc(C#N)c3)nn3ccc(NCCN4CCOCC4)nc23)cc(Cl)n1 [Example 2.19] | 2.8 | 21 | 32 | > 1000 |
| Cc1cc(-c2c(-c3cccc(C#N)c3)nn3ccc(NC(=O)C(C)(C)C)nc23)cc(Cl)n1 [Example 95, N-[3-(2-Chloro-6-methyl-4-pyridyl)-2-(3-cyanophenyl)pyrazolo[1,5-a]pyrimidin-5-yl]-2,2-dimethyl-propanamide] | 2.7 | 31 | 146 | > 1000 |
| Cc1cc(-c2c(-c3cccc(C#N)c3)nn3ccc(N)nc23)cc(C(N)=O)n1 [Example 27.2, 4-[5-Amino-2-(3-cyanophenyl)pyrazolo[1,5-a]pyrimidin-3-yl]-6-methyl-pyridine-2-carboxamide] | 13.3 | 39 | 17 | > 1000 |
| Cc1cc(-c2c(-c3cccc(C#N)c3)nn3ccc(NC(C)CN(C)C)nc23)cc(Cl)n1 (stereo not shown) [Example 2.30] | 15.8 | 55 | 450 | > 1000 |
| Cc1cc(-c2c(-c3cccc(C#N)c3)nn3ccc(N[C@H]4CCNC4)nc23)cc(Cl)n1 [Example 4.6] | 5.1 | 4 | 230 | > 1000 |
| Cc1cc(-c2c(-c3cccc(C#N)c3)nn3ccc(N)nc23)cnc1N [Example 26, 3-[5-Amino-3-(6-amino-5-methyl-3-pyridyl)pyrazolo[1,5-a]pyrimidin-2-yl]benzonitrile] | 147 | 409 | 6 | 2430 |
| Cc1cc(-c2c(-c3cccc(C#N)c3)nn3ccc(N4CCC5(CC4)CNC(=O)C5)nc23)cc(C)n1 [Example 105, 3-[3-(2,6-Dimethyl-4-pyridyl)-5-(3-oxo-2,8-diazaspiro[4.5]decan-8-yl)pyrazolo[1,5-a]pyrimidin-2-yl]benzonitrile] | 127 | 378 | 776 | > 1000 |
| N#Cc1cccc(-c2nn3ccc(N)nc3c2-c2ccnnc2)c1 [Example 1.2] | 13.9 | 29 | 20 | 646 |

Further lines, results first:

| Ki [1] [nM] | Ki [2] [nM] | Ki [3] [nM] | Ki [4] [nM] | Structure (SMILES) |
| --- | --- | --- | --- | --- |
| 134 | 61 | 898 | > 1000 | CCn1nccc1-c1c(-c2cccc(C#N)c2)nn2ccc(N3CCNCC3)nc12 [Example 33.6] |
| 4.6 | 6 | 238 | > 1000 | Cc1cc(-c2c(-c3cccc(C#N)c3)nn3ccc(NC(=O)NCCN)nc23)cc(Cl)n1 [Example 31.2, 1-(2-Aminoethyl)-3-[3-(2-chloro-6-methyl-4-pyridyl)-2-(3-cyanophenyl)pyrazolo[1,5-a]pyrimidin-5-yl]urea trifluoroacetate] |
| 27.6 | 3 | 158 | > 1000 | Cc1cc(-c2c(-c3cccc(C#N)c3)nn3ccc(C(=O)N4CCC5(CC4)NC(=O)NC5=O)nc23)cc(C)n1 [Example 92.7] |
| 10.8 | 15 | 200 | > 1000 | Cc1cc(-c2c(-c3cccc(C#N)c3)nn3ccc(NC(=O)N[C@H]4CCNC4)nc23)cc(Cl)n1 [Example 31.1, 1-[3-(2-Chloro-6-methyl-4-pyridyl)-2-(3-cyanophenyl)pyrazolo[1,5-a]pyrimidin-5-yl]-3-[(3S)-pyrrolidin-3-yl]urea trifluoroacetate] |
| 0.7 | 59 | 232 | > 1000 | Cc1cc(-c2c(-c3cccc(C#N)c3)nn3ccc(C(=O)NCC4(C)CCC(=O)N4)nc23)cc(C)n1 (stereo not shown) [Example 92.16] |
| 4.6 | 5 | 151 | > 1000 | Cc1cc(-c2c(-c3cccc(C#N)c3)nn3ccc(NC(=O)N[C@@H]4CCNC4)nc23)cc(Cl)n1 [Example 31.3, 1-[3-(2-Chloro-6-methyl-4-pyridyl)-2-(3-cyanophenyl)pyrazolo[1,5-a]pyrimidin-5-yl]-3-[(3R)-pyrrolidin-3-yl]urea trifluoroacetate] |
| 3.2 | 64 | 345 | > 1000 | Cc1cc(-c2c(-c3cccc(C#N)c3)nn3ccc(C(=O)NC[C@@H]4CNC(=O)C4)nc23)cc(C)n1 [Example 92.28] |
| 5.4 | 69 | 634 | > 1000 | Cc1cc(-c2c(-c3cccc(C#N)c3)nn3ccc(C(=O)NC4CNC(=O)C4)nc23)cc(C)n1 (stereo not shown) [Example 92.25] |
| 29.8 | 1750 | 38 | 771 | CC(C)(C)OC(=O)N1CCC[C@H]1CNc1ccn2nc(-c3ccco3)c(C#N)c2n1 [Example 37.4] |
